The values below come from patent US8841321B2, “Quinoline derivatives as antibacterial agents” (Janssen Pharmaceutica NV, priority 2005, dated 2014).

Each structure is given as a SMILES string. Converted amounts (≈) assume the structure as drawn.

Assay in all cases: Microtitre plate assay, IC90 determination
Format in all cases: cell-based

The subject of assay [1] is EFA 29212 (Enterococcus faecalis (ATCC29212)). The conditions noted are these: Enterococcus faecalis (ATCC29212).
For assay [2], the system named is SPY 8668 (Streptococcus pyogens (ATCC8668)). The conditions noted are these: Streptococcus pyogens (ATCC8668).
Assay [3] concerns PAE 27853 (Pseudomonas aeruginosa (ATCC27853)). The conditions noted are these: Pseudomonas aeruginosa (ATCC27853).
Assay [4] concerns SPN 6305 (Streptococcus pneumoniae (ATCC6305)). Conditions: Streptococcus pneumoniae (ATCC6305). In a few lines: (§1)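 Growth-inhibition endpoint: resazurin added 3 h after inoculation, plates incubated overnight, fluorescence at 530/590 nm after 24 h at 37 °C. Inocula of roughly 10–60 CFU per well in Mueller-Hinton medium; compounds titrated five-fold. IC90 reported as μg/ml.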
For assay [5], the system named is STA 29213 (Staphylococcus aureus (ATCC29213)). The conditions noted are these: Staphylococcus aureus (ATCC29213). In a few lines: as §1
Assay [6] deals with STA RMETH (methicilline resistant Staphylococcus aureus (MRSA), a clinical isolate from the University of Antwerp).

As for `CNCCCCC(O)(c1ccc2ccccc2c1)C(c1ccccc1)c1cc2cc(Br)ccc2nc1OC` (racemic) [Compound 74], in assay [1], the “IC90 (μg/ml) EFA 29212” value was 9.03 µg/mL (≈ 15.9 µM). For the same molecule, the “IC90 (μg/ml) SPY 8668” value in assay [2] was determined as 9.03 µg/mL (≈ 15.9 µM). The “IC90 (μg/ml) PAE 27853” value in assay [3] turned out to be 10.13 µg/mL (≈ 17.8 µM). For the same molecule, in assay [4], the “IC90 (μg/ml) SPN 6305” value is 0.9 µg/mL (≈ 1.58 µM). The “IC90 (μg/ml) STA 29213” value in assay [5] was 11.36 µg/mL (≈ 19.9 µM).

On to `CNCCCCC(O)(c1ccc2ccccc2c1)C(c1ccccc1)c1cc2cc(Br)ccc2nc1OC` (racemic) [Compound 75], for which the “IC90 (μg/ml) EFA 29212” value in assay [1] was found to be 4.03 µg/mL (≈ 7.08 µM). For the same molecule, the “IC90 (μg/ml) SPY 8668” value in assay [2] came to 1.8 µg/mL (≈ 3.16 µM). In assay [3], the “IC90 (μg/ml) PAE 27853” value was found to be 2.02 µg/mL (≈ 3.55 µM). Also, in assay [4], the “IC90 (μg/ml) SPN 6305” value was 0.9 µg/mL (≈ 1.58 µM). The “IC90 (μg/ml) STA 29213” value in assay [5] was 2.02 µg/mL (≈ 3.55 µM). Also, in assay [6], the “IC90 (μg/ml) STA RMETH” value amounted to 11.36 µg/mL (≈ 19.9 µM).

With `COc1nc2c(C)c(Br)ccc2cc1C(c1ccccc1)C(O)(CCCCN(C)C)c1ccc2ccccc2c1` (racemic) [Compound 81], the “IC90 (μg/ml) EFA 29212” value in assay [1] worked out at 1.89 µg/mL (≈ 3.16 µM). Besides, the “IC90 (μg/ml) SPY 8668” value in assay [2] was found to be 1.89 µg/mL (≈ 3.16 µM). Further, the “IC90 (μg/ml) PAE 27853” value in assay [3] was found to be 9.47 µg/mL (≈ 15.8 µM). For the same molecule, the “IC90 (μg/ml) SPN 6305” value in assay [4] was 4.75 µg/mL (≈ 7.95 µM). Also, in assay [5], the “IC90 (μg/ml) STA 29213” value was determined as 9.47 µg/mL (≈ 15.8 µM).

On to `COc1nc2ccc(Br)cc2cc1C(c1ccccc1)C(O)(CCCCN1CCC(C)CC1)c1ccc2ccccc2c1` (racemic) [Compound 102], for which the “IC90 (μg/ml) EFA 29212” value in assay [1] turned out to be 10.11 µg/mL (≈ 15.9 µM). For the same molecule, the “IC90 (μg/ml) SPY 8668” value in assay [2] was found to be 2.02 µg/mL (≈ 3.17 µM). The “IC90 (μg/ml) PAE 27853” value in assay [3] was 2.02 µg/mL (≈ 3.17 µM). Moreover, the “IC90 (μg/ml) SPN 6305” value in assay [4] was 1.8 µg/mL (≈ 2.82 µM). Further, the “IC90 (μg/ml) STA 29213” value in assay [5] was 10.11 µg/mL (≈ 15.9 µM).

Consider `COc1nc2ccc(Br)cc2cc1C(c1ccccc1)C(O)(CCCCN(C)C(C)C)c1ccccc1` (single isomer, unassigned) [Compound 89], for which the “IC90 (μg/ml) EFA 29212” value in assay [1] was found to be 11.2 µg/mL (≈ 19.9 µM). Moreover, the “IC90 (μg/ml) SPY 8668” value in assay [2] is 8.9 µg/mL (≈ 15.8 µM). For the same molecule, the “IC90 (μg/ml) PAE 27853” value in assay [3] was 11.2 µg/mL (≈ 19.9 µM). Further, the “IC90 (μg/ml) SPN 6305” value in assay [4] came to 2.24 µg/mL (≈ 3.99 µM). For the same molecule, the “IC90 (μg/ml) STA 29213” value in assay [5] amounted to 11.2 µg/mL (≈ 19.9 µM).

Regarding `COc1nc2ccc(Br)cc2cc1C(c1ccccc1)C(O)(CCCCN1CCN(C)CC1)c1ccc2ccccc2c1` (single isomer, unassigned) [Compound 112], the “IC90 (μg/ml) EFA 29212” value in assay [1] was 2.02 µg/mL (≈ 3.16 µM). Moreover, the “IC90 (μg/ml) SPY 8668” value in assay [2] is 2.02 µg/mL (≈ 3.16 µM). Further, the “IC90 (μg/ml) PAE 27853” value in assay [3] was 2.02 µg/mL (≈ 3.16 µM). In addition, the “IC90 (μg/ml) SPN 6305” value in assay [4] came to 2.54 µg/mL (≈ 3.98 µM). Further, in assay [5], the “IC90 (μg/ml) STA 29213” value came to 2.02 µg/mL (≈ 3.16 µM). Further, the “IC90 (μg/ml) STA RMETH” value in assay [6] turned out to be 2.54 µg/mL (≈ 3.98 µM).

In the case of `COc1nc2ccc(Br)cc2cc1C(c1ccccc1)C(O)(CCCCN1CCCCC1)CCC(C)C` (single isomer, unassigned) [Compound 124], the “IC90 (μg/ml) EFA 29212” value in assay [1] is 9 µg/mL (≈ 15.9 µM). Besides, in assay [2], the “IC90 (μg/ml) SPY 8668” value was determined as 9 µg/mL (≈ 15.9 µM). For the same molecule, the “IC90 (μg/ml) PAE 27853” value in assay [3] was 3.58 µg/mL (≈ 6.31 µM). Besides, in assay [4], the “IC90 (μg/ml) SPN 6305” value stood at 2.26 µg/mL (≈ 3.98 µM). Also, in assay [5], the “IC90 (μg/ml) STA 29213” value was found to be 1.79 µg/mL (≈ 3.15 µM).

As for `COc1nc2ccc(Br)cc2cc1C(c1ccccc1)C(O)(CCCCN1CCN(C)CC1)CCc1ccccc1` (single isomer, unassigned) [Compound 137], in assay [1], the “IC90 (μg/ml) EFA 29212” value is 9.77 µg/mL (≈ 15.8 µM). In assay [2], the “IC90 (μg/ml) SPY 8668” value was 1.95 µg/mL (≈ 3.16 µM). In assay [3], the “IC90 (μg/ml) PAE 27853” value amounted to 9.77 µg/mL (≈ 15.8 µM). In assay [4], the “IC90 (μg/ml) SPN 6305” value amounted to 1.95 µg/mL (≈ 3.16 µM). Also, the “IC90 (μg/ml) STA 29213” value in assay [5] worked out at 1.95 µg/mL (≈ 3.16 µM). Moreover, the “IC90 (μg/ml) STA RMETH” value in assay [6] stood at 12.3 µg/mL (≈ 19.9 µM).

Consider `COc1nc2ccc(Br)cc2cc1C(c1ccccc1)C(O)(CCCCN(C)C)CCCc1ccccc1` (single isomer, unassigned) [Compound 144], for which the “IC90 (μg/ml) EFA 29212” value in assay [1] was 1.82 µg/mL (≈ 3.16 µM). Also, the “IC90 (μg/ml) SPY 8668” value in assay [2] came to 1.82 µg/mL (≈ 3.16 µM). Also, in assay [3], the “IC90 (μg/ml) PAE 27853” value turned out to be 1.82 µg/mL (≈ 3.16 µM). For the same molecule, in assay [4], the “IC90 (μg/ml) SPN 6305” value stood at 2.29 µg/mL (≈ 3.98 µM). In addition, the “IC90 (μg/ml) STA 29213” value in assay [5] was 9.12 µg/mL (≈ 15.8 µM).

Regarding `COc1nc2ccc(Br)cc2cc1C(c1ccccc1)C(O)(CCCCN(C)C)CCCc1ccccc1` (single isomer, unassigned) [Compound 145], the “IC90 (μg/ml) EFA 29212” value in assay [1] was 9.12 µg/mL (≈ 15.8 µM). In assay [2], the “IC90 (μg/ml) SPY 8668” value was 5.13 µg/mL (≈ 8.91 µM). Further, the “IC90 (μg/ml) PAE 27853” value in assay [3] was 9.12 µg/mL (≈ 15.8 µM). In addition, the “IC90 (μg/ml) SPN 6305” value in assay [4] is 2.29 µg/mL (≈ 3.98 µM). For the same molecule, the “IC90 (μg/ml) STA 29213” value in assay [5] turned out to be 5.76 µg/mL (≈ 10 µM).

As for `COc1nc2ccc(C)cc2cc1C(c1ccccc1)C(O)(CCCCCN(C)C)c1ccccc1` (single isomer, unassigned) [Compound 152], in assay [1], the “IC90 (μg/ml) EFA 29212” value worked out at 38.3 µg/mL (≈ 79.4 µM). For the same molecule, the “IC90 (μg/ml) SPY 8668” value in assay [2] stood at 38.3 µg/mL (≈ 79.4 µM). Also, the “IC90 (μg/ml) PAE 27853” value in assay [3] was determined as 38.3 µg/mL (≈ 79.4 µM). Further, the “IC90 (μg/ml) SPN 6305” value in assay [4] was 1.5 µg/mL (≈ 3.11 µM). In addition, the “IC90 (μg/ml) STA 29213” value in assay [5] is 7.7 µg/mL (≈ 16 µM).
